# From patent US20030095958A1, “Inhibitors of bace” (priority 2001, published 2003)
# Biological target: BACE (Homo sapiens, UniProt P56817)
# Test: Ki Determination for the Inhibition of BACE (FS-1 peptide fluorescence cleavage assay)
# Type: biochemical
# Settings: apparent Ki; 50 nM BACE, 10 μM FS-1 substrate, 0.1M sodium acetate pH 4.5
# Summary of the method: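 Human BACE (50 nM) was preincubated 15 min at room temperature with compound (2% DMSO) in 0.1 M sodium acetate pH 4.5, then 10 μM FS-1 peptide was added. Cleavage was followed by fluorescence (ex 355/em 495 nm), and apparent Ki came from fitting to the integrated competitive tight-binding inhibition equation.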
# Chain of BACE (P56817 46-501): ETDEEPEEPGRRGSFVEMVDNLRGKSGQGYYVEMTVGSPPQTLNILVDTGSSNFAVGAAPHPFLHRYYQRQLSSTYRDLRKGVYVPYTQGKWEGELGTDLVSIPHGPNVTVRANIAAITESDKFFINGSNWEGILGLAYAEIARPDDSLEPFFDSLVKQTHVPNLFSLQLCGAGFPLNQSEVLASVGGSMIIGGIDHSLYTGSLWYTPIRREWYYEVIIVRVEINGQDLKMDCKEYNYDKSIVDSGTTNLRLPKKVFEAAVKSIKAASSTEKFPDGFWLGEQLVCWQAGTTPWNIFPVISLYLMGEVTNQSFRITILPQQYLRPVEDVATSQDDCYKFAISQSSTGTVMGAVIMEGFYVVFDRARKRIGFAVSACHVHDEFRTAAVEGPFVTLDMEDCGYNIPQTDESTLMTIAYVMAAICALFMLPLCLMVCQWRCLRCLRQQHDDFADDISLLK
row,Ki [µM],Compound
1,3 to 30,"FC(F)(F)c1ccccc1OCc1ccc(COc2ccc(-c3ccccc3)cc2-c2ccccc2)c(C2=CCNCC2)c1 [Compound 326, 4-[2-([1,1′;3′,1′′]Terphenyl-4′-yloxymethyl)-5-(2-trifluoromethyl-phenoxymethyl)-phenyl]-1,2,3,6-tetrahydro-pyridine]"
2,3 to 30,"Nc1ccccc1-c1ccc(C2=CCNCC2)c(COc2ccccc2C(F)(F)F)c1 [Compound 376, 4′-(1,2,3,6-Tetrahydro-pyridin-4-yl)-3′-(2-trifluoromethyl-phenoxymethyl)-biphenyl-2-ylamine]"
3,3 to 30,"COC(=O)c1cc(C2=CCNCC2)c(COc2ccccc2C(F)(F)F)cc1C1=CCNCC1 [Compound 382, 2,5-Bis-(1,2,3,6-tetrahydro-pyridin-4-yl)-4-(2-trifluoromethyl-phenoxymethyl)-benzoic acid methyl ester]"
4,3 to 30,"CN1CC=C(c2cc(CO)c(-c3ccoc3)cc2COc2ccccc2C(F)(F)F)CC1 [Compound 388, [2-Furan-3-yl-5-(1-methyl-1,2,3,6-tetrahydro-pyridin-4-yl)-4-(2-trifluoromethyl-phenoxymethyl)-phenyl]-methanol]"
5,3 to 30,"N#Cc1ccc(-c2ccc(N3CCNCC3)c(NC(=O)c3cccc4ccccc34)c2)cc1 [Compound 131, Naphthalene-1-carboxylic acid (4′-cyano-4-piperazin-1-yl-biphenyl-3-yl)-amide]"
6,< 3,"Fc1cccc(F)c1-c1cc(COc2ccccc2C(F)(F)F)c(C2=CCNCC2)cc1COc1ccccc1C(F)(F)F [Compound 349, 4-[2′,6′-Difluoro-2,5-bis-(2-trifluoromethyl-phenoxymethyl)-biphenyl-4-yl]-1,2,3,6-tetrahydro-pyridine]"
7,< 3,"FC(F)(F)c1ccccc1OCc1cc(-c2ccccc2Cl)ccc1C1=CCNCC1 [Compound 373, 4-[2′-Chloro-3-(2-trifluoromethyl-phenoxymethyl)-biphenyl-4-yl]-1,2,3,6-tetrahydro-pyridine]"
8,< 3,"O=[N+]([O-])c1ccc(-c2cc(COc3ccccc3C(F)(F)F)c(C3=CCNCC3)cc2COc2ccccc2C(F)(F)F)cc1 [Compound 354, 4-[4′-Nitro-2,5-bis-(2-trifluoromethyl-phenoxymethyl)-biphenyl-4-yl]-1,2,3,6-tetrahydro-pyridine]"
9,3 to 30,"O=C(Nc1cc(-c2ccncc2)ccc1N1CCNCC1)c1cccc2ccccc12 [Compound 111, Naphthalene-1-carboxylic acid (2-piperazin-1-yl-5-pyridin-4-yl-phenyl)-amide]"
10,< 3,"O=C(c1ccc2ccccc2c1)n1c2c(c3cc(OCc4cccc(C(F)(F)F)c4)ccc31)CCNC2 [Compound 507, Naphthalen-2-yl-[6-(3-trifluoromethyl-benzyloxy)-1,2,3,4-tetrahydro-b-carbolin-9-yl]-methanone]"
11,< 3,"O=C(c1ccc2ccccc2c1)n1c2c(c3cc(OCc4ccc(OC(F)F)cc4)ccc31)CCNC2 [Compound 515, [6-(4-Difluoromethoxy-benzyloxy)-1,2,3,4-tetrahydro-b-carbolin-9-yl]-naphthalen-2-yl-methanone]"
12,< 3,"O=C(Nc1cc(-c2cccc(Cl)c2Cl)ccc1N1CCNCC1)c1cccc2ccccc12 [Compound 106, Naphthalene-1-carboxylic acid (2′,3′-dichloro-4-piperazin-1-yl-biphenyl-3-yl)-amide]"
13,< 3,"FC(F)(F)c1ccccc1OCc1cc(-c2ccccc2)ccc1C1=CCNCC1 [Compound 360, 4-[3-(2-Trifluoromethyl-phenoxymethyl)-biphenyl-4-yl]-1,2,3,6-tetrahydro-pyridine]"
14,> 30,"O=S(=O)(Nc1cc(C(F)(F)F)ccc1N1CCNCC1)c1ccc2ccccc2c1 [Compound 136, Naphthalene-2-sulfonic acid (2-piperazin-1-yl-5-trifluoromethyl-phenyl)-amide]"

# The remaining lines, values behind:
row,Compound,Ki [µM]
1,"O=C(OCc1cc(C2=CCNCC2)c(COc2ccccc2C(F)(F)F)cc1-c1ccoc1)c1ccncc1 [Compound 390, Isonicotinic acid 2-furan-3-yl-5-(1,2,3,6-tetrahydro-pyridin-4-yl)-4-(2-trifluoromethyl-phenoxymethyl)-benzyl ester]",< 3
2,"FC(F)(F)c1ccccc1OCc1cc(-c2ccccc2C(F)(F)F)c(COc2ccccc2C(F)(F)F)cc1C1=CCNCC1 [Compound 336, 4-[2′-Trifluoromethyl-2,5-bis-(2-trifluoromethyl-phenoxymethyl)-biphenyl-4-yl]-1,2,3,6-tetrahydro-pyridine]",< 3
3,"FC(F)(F)c1ccccc1OCc1cc(-c2ccc3ccccc3c2)c(COc2ccccc2C(F)(F)F)cc1C1=CCNCC1 [Compound 339, 4-[4-Naphthalen-2-yl-2,5-bis-(2-trifluoromethyl-phenoxymethyl)-phenyl]-1,2,3,6-tetrahydro-pyridine]",3 to 30
4,"FC(F)(F)c1ccc(-c2cc(COc3ccccc3C(F)(F)F)c(C3=CCNCC3)cc2COc2ccccc2C(F)(F)F)cc1 [Compound 338, 4-[4′-Trifluoromethyl-2,5-bis-(2-trifluoromethyl-phenoxymethyl)-biphenyl-4-yl]-1,2,3,6-tetrahydro-pyridine]",3 to 30
5,"O=C(Nc1cc(F)c(-c2ccccc2)cc1N1CCNCC1)c1cccc2ccccc12 [Compound 158, Naphthalene-1-carboxylic acid (2-fluoro-5-piperazin-1-yl-biphenyl-4-yl)-amide]",3 to 30
6,"O=C(c1cccc2ccccc12)n1c2c(c3cc(OCc4ccccc4C(F)(F)F)ccc31)CCNC2 [Compound 504, Naphthalen-1-yl-[6-(2-trifluoromethyl-benzyloxy)-1,2,3,4-tetrahydro-b-carbolin-9-yl]-methanone]",< 3
7,"Nc1ccc(-c2cc(COc3ccccc3C(F)(F)F)c(C3=CCNCC3)cc2COc2ccccc2C(F)(F)F)cc1 [Compound 359, 4′-(1,2,3,6-Tetrahydro-pyridin-4-yl)-2′,5′-bis-(2-trifluoromethyl-phenoxymethyl)-biphenyl-4-ylamine]",< 3
8,"Cc1ccc(Oc2ccc(N3CCNCC3)c(NC(=O)c3cccc4ccccc34)c2)cc1 [Compound 142, Naphthalene-1-carboxylic acid (2-piperazin-1-yl-5-p-tolyloxy-phenyl)-amide]",3 to 30
9,"O=C(Nc1cc(C(F)(F)F)ccc1N1CCNCC1)c1cnc2ccccc2n1 [Compound 189, Quinoxaline-2-carboxylic acid (2-piperazin-1-yl-5-trifluoromethyl-phenyl)-amide]",3 to 30
10,"c1ccc(-c2ccc(N3CCNCC3)c(NCc3ccc4ccccc4c3)c2)cc1 [Compound 165, Naphthalen-2-ylmethyl-(4-piperazin-1-yl-biphenyl-3-yl)-amine]",< 3
11,"Cc1cc(N2CCNCC2)c(NC(=O)c2cccc3ccccc23)cc1-c1ccsc1 [Compound 155, Naphthalene-1-carboxylic acid (4-methyl-2-piperazin-1-yl-5-thiophen-3-yl-phenyl)-amide]",3 to 30
12,"O=C(OCc1ccccc1-c1cc(COc2ccccc2C(F)(F)F)c(C2=CCNCC2)cc1COc1ccccc1C(F)(F)F)c1ccco1 [Compound 370, Furan-2-carboxylic acid 4′-(1,2,3,6-tetrahydro-pyridin-4-yl)-2′,5′-bis-(2-trifluoromethyl-phenoxymethyl)-biphenyl-2-ylmethyl ester]",< 3
13,"FC(F)(F)c1ccccc1OCc1cc(-c2ccoc2)ccc1C1=CCNCC1 [Compound 363, 4-[4-Furan-3-yl-2-(2-trifluoromethyl-phenoxymethyl)-phenyl]-1,2,3,6-tetrahydro-pyridine]",3 to 30
14,"FC(F)(F)c1ccccc1OCc1cc(-c2cccnc2)c(COc2ccccc2C(F)(F)F)cc1C1=CCNCC1 [Compound 340, 3-[4-(1,2,3,6-Tetrahydro-pyridin-4-yl)-2,5-bis-(2-trifluoromethyl-phenoxymethyl)-phenyl]-pyridine]",< 3
15,"O=C(Nc1cc(C(F)(F)F)ccc1N1CCNCC1)Oc1ccc2ccccc2c1 [Compound 151, (2-Piperazin-1-yl-5-trifluoromethyl-phenyl)-carbamic acid naphthalen-2-yl ester]",3 to 30
16,FC(F)(F)c1cccc(COC2CNCC(COc3ccc4ccccc4c3)C2c2ccc(-c3ccccc3)cc2)c1 (stereo not drawn) [Compound 413],< 3
17,"O=C(Nc1cc(-c2ccoc2)ccc1N1CCNCC1)c1cccc2ccccc12 [Compound 152, Naphthalene-1-carboxylic acid (5-furan-3-yl-2-piperazin-1-yl-phenyl)-amide]",> 30
18,"FC(F)(F)c1ccccc1COc1ccc2c(c1)c1c(n2Cc2ccc3ccccc3c2)CNCC1 [Compound 535, 9-Naphthalen-2-ylmethyl-6-(2-trifluoromethyl-benzyloxy)-2,3,4,9-tetrahydro-1H-b-carboline]",< 3
19,"O=C(Nc1cc(F)c(-c2ccoc2)cc1N1CCNCC1)c1cccc2ccccc12 [Compound 160, Naphthalene-1-carboxylic acid (5-fluoro-4-furan-3-yl-2-piperazin-1-yl-phenyl)-amide]",3 to 30
20,"Cc1cccc(Oc2ccc(N3CCNCC3)c(NC(=O)c3cccc4ccccc34)c2)c1 [Compound 141, Naphthalene-1-carboxylic acid (2-piperazin-1-yl-5-m-tolyloxy-phenyl)-amide]",3 to 30
21,"O=C(Nc1cc(-c2ccccc2)c(COc2ccccc2C(F)(F)F)cc1N1CCNCC1)c1nccc2ccccc12 [Compound 184, Isoquinoline-1-carboxylic acid [4-piperazin-1-yl-6-(2-trifluoromethyl-phenoxymethyl)-biphenyl-3-yl]-amide]",< 3
22,"O=S(=O)(Nc1cc(-c2ccc(Cl)c(Cl)c2)ccc1N1CCNCC1)c1ccc(-c2ccc(Cl)cc2)cc1 [Compound 181, 4′-Chloro-biphenyl-4-sulfonic acid (3′,4′-dichloro-4-piperazin-1-yl-biphenyl-3-yl)-amide]",3 to 30
